{"source": "patent US20010048926A1", "about": "“SYNTHETIC PEPTIDE VACCINES FOR DENTAL CARIES” (priority 1992, published 2001)", "key": {"[1]": {"test_system": "inducing peptide construct", "test": "ELISA of serum IgG antibody to the inducing (homologous) peptide construct in immunized rats", "format": "in vivo, Sprague Dawley rats", "details": "for IgG antibody levels to GGY: pre-infection sera", "description": "(§1) Immunogenicity of Peptides: Sprague Dawley CD strain 43 day-old male rats (Charles River Laboratories) were used for injection. Six groups of 4-5 rats were injected subcutaneously in the vicinity of the salivary glands with 50 μg each of GGY, AND, SAND or CAT peptide constructs, 10 μg of GTF, or sham-immunized with buffer alone. The initial injection included complete Freund adjuvant (CFA; Difco); two subsequent injections at 21-day intervals included incomplete Freund adjuvant. Animals were bled prior to injection and 14-21 days after each injection. Serum from coagulated and centrifuged blood was stored frozen at −20° C. until use.\n(§2) ELISA: Serum IgG and salivary IgA antibodies were tested by enzyme-linked immunosorbent assay (ELISA). Polystyrene microtiter plates (Flow Laboratories) were coated with […] of each peptide construct or 0.5 μg of S. sobrinus GTF. Antibody activity was then measured by incubation with 1:100 to 1:10^6 dilutions of sera, or 1:4 to 1:32 dilutions of saliva. Plates were then developed for IgG antibody rabbit anti-rat IgG followed in sequence by alkaline phosphatase goat anti-rabbit IgG (Biosource Inc.) and p-nitrophenylphosphate (Sigma). A mouse monoclonal reagent to rat α chain (Zymed, South San Francisco, Calif.) was used with biotinylated goat anti-mouse IgG (TAGO, Inc., Burlingame, Calif.) and avidin-alkaline phosphatase (Cappel) to reveal levels of salivary IgA antibody to peptides. Reactivity was recorded as absorbance (A405 nm) in a micro plate reader (Biotek Instruments). Data are reported as absorbance (A405 nm), reciprocal titer, or as ELISA units (EU) which were calculated relative to the levels of appropriate reference sera or salivas from Sprague Dawley rats thrice immunized with the respective peptide construct. Dilutions of 1:12,800 and 1:6,400 (A405 nm approximately 1.0) were considered 100 EU for serum IgG to the GGY and AND constructs, respectively. Dilutions of 1:32 were considered 100 EU for salivary IgA to both GGY and AND constructs.\nTwo experiments were performed. Groups (n=11-12) of 23-26 day-old rats were subcutaneously (sc) injected in the salivary gland vicinity with (experiment 1) GGY (50 μg), AND (50 μg) or GTF(10 μg), or phosphate buffered saline (control animals), or (experiment 2) GGY (50 ;μg) or PBS. Each antigen was incorporated with complete Freund adjuvant in both experiments. Eight (experiment 1) or 14 (experiment 2) days later, rats were reinjected with PBS or with the same antigen and dose in incomplete Freund adjuvant. Six (experiment 1) or 12 (experiment 2) days after the second injection, animals were bled from the tail vein, and saliva was collected after injection of pilocarpine (1.0 mg/100 g body weight). Fourteen (experiment 1) or 11 (experiment 2) days after the second injection, all rats were orally infected with approximately 10^8 S. mutans for 3 consecutive days. Both experiments were terminated 63 days after initial infection.\nTwo experiments were performed to measure the effect of immunization with the eight-branched GGY and AND peptide constructs on experimental dental caries in the Sprague-Dawley rat. In the first experiment, groups of rats were immunized with GGY or AND peptide constructs. In the second experiment groups of rats were immunized only with the GGY peptide construct. Pre-infection sera and salivas were collected for antibody measurement in 39 day old rats in experiment 1 (6 days after the second injection) and 51 day old rats in experiment 2 (12 days after the second injection). In the GGY-immunized rat groups, IgG antibody levels to GGY (experiment 1=21.9+17.8 EU; experiment 2=108.0±4.0 EU) were elevated above those of the sham-immunized groups (experiment 1=1.7±0.2 EU; experiment 2=4.0±3.0 EU) in both experiments and reached statistical significance (p<0.002) in experiment 2."}, "anti-GGY serum": {"test_system": "anti-GGY serum", "test": "Epitope mapping by ELISA inhibition, anti-GGY serum on GGY-coated plates", "format": "binding, rat", "details": "anti-GGY serum preincubated with heptamer or intact peptide; FIG. 8", "description": "Epitope Mapping: B cell epitopes were mapped on the GGY and AND peptides by an ELISA inhibition technique. Anti-GGY or anti-AND sera were preincubated with 13 separate heptamers representing the incremental peptide sequence of the respective peptide, or with intact peptide, followed by the conventional ELISA with intact peptide-coated plates. B cell epitopes were indicated by a significant reduction in absorbance."}, "CAT peptide construct": {"target": "T1, CAT peptide construct (Streptococcus mutans serotype c, UniProt P08987)", "T1 construct": "residues 442-462 of S. mutans GTF-B; purchased Applied Diagnostics, Foster City, Calif; host or cells: chemical solid phase synthesis", "T1 sequence (P08987 442-462 limits assumed)": "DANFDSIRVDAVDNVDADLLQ", "test": "Cross-reactivity ELISA, plates coated with CAT peptide construct", "format": "binding", "details": "day 63 sera; FIG. 4", "description": "as §1\nELISA: Serum IgG and salivary IgA antibodies were tested by enzyme-linked immunosorbent assay (ELISA). Polystyrene microtiter plates (Flow Laboratories) were coated with […] of each peptide construct or 0.5 μg of S. sobrinus GTF. Antibody activity was then measured by incubation with 1:100 to 1:10^6 dilutions of sera, or 1:4 to 1:32 dilutions of saliva. […] Reactivity was recorded as absorbance (A405 nm) in a micro plate reader (Biotek Instruments). Data are reported as absorbance (A405 nm), reciprocal titer, or as ELISA units (EU) which were calculated relative to the levels of appropriate reference sera or salivas from Sprague Dawley rats thrice immunized with the respective peptide construct. […]"}, "S. sobrinus GTF": {"test_system": "S. sobrinus GTF", "test": "ELISA of serum IgG antibody reacting with intact S. sobrinus GTF", "format": "in vivo", "details": "63 day sera, n=4-5 per group; FIG. 3", "text": "Glucosyltransferases: Glucosyltransferases (GTF) from S. sobrinus strain 6715 were purified from culture supernatants after bacterial growth in glucose-containing defined media, as described in Taubman et al. (J. Oral Pathol. 17:466-470 (1988)). Enzymes were separated from other culture supernatant proteins by affinity chromatography on Sephadex G-100 (Pharmacia Fine Chemicals), using 6M guanidine HCl as the eluting solvent. GTFs were then obtained from the guanidine HCl eluate by FPLC chromatography on Superose 6 (Pharmacia) using 6M guanidine for elution. GTF preparations contained a mixture of GTF-I, GTF-Sd, and GTF-Si.\nas §1, §2"}}}
{"sequence": "GGYEFLLANDVDNSNPVVQ", "values": [{"measurement": "responding rats (serum IgG)", "setting": "[1]; immunization began on day 43 of life, bled 21 days later (day 64 of life), immunogenicity experiment", "value": "4/4"}, {"measurement": "immunogenicity (percentage of animals responding and titer of responding sera)", "setting": "[1]; immunogenicity experiment, FIG. 1", "value": "at least as high as observed for the positive control CAT peptide"}, {"measurement": "effect of subsequent immunization on serum IgG titers", "setting": "[1]; immunogenicity experiment, day 21 (one injection) vs day 63 (three injections)", "value": "sufficient to induce maximal serum IgG antibody to GGY"}, {"measurement": "serum IgG antibody to the inciting antigen after the first injection", "setting": "[1]; immunogenicity experiment, rats 43 days old at start, 50 μg sc in CFA, day 21", "value": "induced serum IgG antibody to the inciting antigen after the first injection in all rats"}, {"measurement": "IgG antibody levels to GGY", "setting": "[1]; protection experiment 1, 39 day old rats, 6 days after the second injection", "value": "21.9 ± 17.8", "unit": "EU"}, {"measurement": "levels of serum IgG antibody (in words)", "setting": "[1]; protection experiment 1, weanling rats, two injections eight days apart, bled 14 days after onset (day 39 of life)", "value": "modest levels"}, {"measurement": "IgG antibody levels to GGY", "setting": "[1]; protection experiment 2, 51 day old rats, 12 days after the second injection, p<0.002 vs sham", "value": "108.0±4.0", "unit": "EU"}, {"measurement": "positively responding rats (serum IgG)", "setting": "[1]; protection experiment 2, weanling rats, two injections 14 days apart, bled 26 days after onset (day 51 of life)", "value": "8/11"}, {"measurement": "levels of serum IgG antibody (in words)", "setting": "[1]; protection experiment 2, weanling rats, two injections 14 days apart, bled day 51 of life", "value": "significantly elevated levels of serum IgG antibody"}, {"measurement": "inhibition of GGY antibody binding to intact peptide-coated plates", "setting": "anti-GGY serum", "value": "completely inhibited"}, {"measurement": "reaction of serum IgG antibody with the CAT peptide", "setting": "CAT peptide construct", "value": "low but significant reaction"}, {"measurement": "IgG antibody reactivity with intact S. sobrinus GTF", "setting": "S. sobrinus GTF", "value": "significant reactivity with GTF"}]}
